Measurements as given in patent US20210069213A1, “COMPOSITION AND METHOD OF TREATMENT FOR DRY A.M.D. (AGE RELATED MACULAR DEGENERATION)” (EYE CO PTY LTD, priority 2018, published 2021).

Tests used:
[1] = test system: light-damage model of dry AMD; assay: Light-damage model of dry AMD in mice; assay type: in vivo
[2] = test system: New Zealand albino rabbits; assay: Intravitreal toxicology of fludrocortisone acetate in rabbit eyes; assay type: in vivo; conditions: based on vitreous volume, man 4 mL vs rabbit 1.5 mL
Excerpt: The eyes were enucleated and examined with light microscopy.
Investigative Ophthalmology & Visual Science, 2006. 47(13): p. 4281-4281 ]. […] Their eyes were enucleated and examined with light microscopy.

[3] = target: T1, mineralocorticoid receptor (Homo sapiens, UniProt P08235); conditions: Table 1; hydrocortisone (cortisol) = 1; cited from earlier work
T1 sequence (P08235 1-984): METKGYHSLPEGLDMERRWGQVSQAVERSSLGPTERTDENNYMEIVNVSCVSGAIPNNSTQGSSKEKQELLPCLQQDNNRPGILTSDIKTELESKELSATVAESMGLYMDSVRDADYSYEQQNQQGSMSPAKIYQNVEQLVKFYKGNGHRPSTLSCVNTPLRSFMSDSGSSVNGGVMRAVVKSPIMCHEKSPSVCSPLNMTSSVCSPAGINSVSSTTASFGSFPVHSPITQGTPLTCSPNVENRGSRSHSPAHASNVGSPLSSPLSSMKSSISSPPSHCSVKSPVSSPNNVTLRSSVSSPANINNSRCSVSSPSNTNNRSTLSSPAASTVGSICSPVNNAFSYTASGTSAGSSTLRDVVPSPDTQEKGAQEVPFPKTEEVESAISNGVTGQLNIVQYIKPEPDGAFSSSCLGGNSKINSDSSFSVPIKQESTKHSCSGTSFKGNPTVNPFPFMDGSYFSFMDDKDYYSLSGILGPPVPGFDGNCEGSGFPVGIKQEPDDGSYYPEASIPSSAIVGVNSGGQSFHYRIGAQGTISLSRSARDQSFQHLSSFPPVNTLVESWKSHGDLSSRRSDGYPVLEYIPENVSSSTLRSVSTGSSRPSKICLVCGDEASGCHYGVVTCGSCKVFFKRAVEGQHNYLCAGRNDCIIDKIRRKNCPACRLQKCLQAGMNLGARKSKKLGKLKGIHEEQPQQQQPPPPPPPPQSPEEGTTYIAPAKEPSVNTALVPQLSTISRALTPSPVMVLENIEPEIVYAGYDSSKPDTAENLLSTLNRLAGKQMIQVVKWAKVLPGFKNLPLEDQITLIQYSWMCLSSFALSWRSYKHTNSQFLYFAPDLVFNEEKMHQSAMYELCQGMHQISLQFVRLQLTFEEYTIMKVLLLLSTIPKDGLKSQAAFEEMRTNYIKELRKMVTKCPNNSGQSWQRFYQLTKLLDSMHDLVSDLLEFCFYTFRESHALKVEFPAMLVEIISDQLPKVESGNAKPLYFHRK

[4] = FA delivered in Kenalog vehicle, 7 days later

With CC(=O)OCC(=O)[C@@]1(O)CC[C@H]2[C@@H]3CCC4=CC(=O)CC[C@]4(C)[C@@]3(F)[C@@H](O)C[C@@]21C [Fludrocortisone acetate, 9-α-Fiuoro-11 β. 17 α, 21-trihydroxy-4-pregnene-3, 20 dione acetate] the cell death [1, 4] was “significantly less cell death”, the “macrophages that carry the IBA1 marker” value [1, 4] was “significantly fewer macrophages” and the “Electroretinogram A-wave (Photoreceptor function) and B-wave (inner retinal function)” value ([1]; FA-treated animals) was “significantly more robust”. The “outer nuclear layer thickness (histology)” value ([1]; FA-treated animals) was “much thicker outer nuclear layer”, the human equivalent dose [2] was 67 mg/eye every 4 weeks and the MR potency [3] was 200.
